{"source": "patent US12544372B2", "about": "“Methods of treating rheumatoid arthritis, chronic spontaneous urticaria, and systemic lupus erythematosis using an inhibitor of Bruton's tyrosine kinase” (Genentech, Inc., priority 2019, dated 2026)", "key": {"[1]": {"test": "Phase II SLE study: safety", "excerpt": "The safety objective for this study was to evaluate the safety of fenebrutinib given in combination with SOC in patients with moderate to severe active SLE.\nAn unblinded IMC and Scientific Oversight Committee is used to monitor multiple safety assessments."}, "Total IgM": {"tested_on": "Total IgM", "test": "RA study biomarker: total IgM", "type": "in vivo, human", "procedure": "[…] The biomarkers evaluated in this assessment were chemokine [C-C motif] ligand 4 (CCL4), IL-6, and TNF-like cytokine 1A (TL1A). Total IgM, IgG, rheumatoid factor IgM autoantibody (RF), CCL4, TL1A, IL-6, and anti-CCP autoantibody (ACPA IgG) levels were analyzed with immunoassays. CD19^+ B cells and CD3^+ T cells were measured by flow cytometry. The proportion of patients achieving an ACR50 response at week 12 and the change in DAS28 score by week 12 were assessed relative to seropositivity (RF and/or ACPA positive at baseline) or baseline levels of RF in both cohorts. To select which biomarkers to evaluate in this trial, BTK-dependent myeloid biomarkers were identified using peripheral blood CD14^+ monocytes stimulated with immune-complexes in the presence or absence of a BTK inhibitor. In brief, the expression levels of genes in human monocytes were assayed under conditions of no stimulation; with human serum albumin immune complex stimulation; with stimulation and a low concentration of a BTK inhibitor with similar characteristics to fenebrutinib; or with stimulation and a high concentration of the BTK inhibitor. […] Genes annotated with cytokine activity were selected. The color bar represents normalized gene expression."}, "RA study: safety": {"test": "RA study: safety", "type": "in vivo, human", "source_text": "Investigator conducted assessments: Joint counts and Physician's Global Assessment of Arthritis visual analog scale (VAS), safety assessments (adverse events, vital signs, concomitant medications, review of laboratory data). For Cohort 1 only: SC comparator drug injection; For Cohorts 1 and 2: Administration of oral study drug."}, "[2]": {"tested_on": "patients with moderate to severe active rheumatoid arthritis", "test": "Phase II RA study, Cohort 2 (inadequate response or intolerance to TNF therapy): clinical efficacy", "type": "in vivo, human", "details": "Cohort 2, 200 mg BID", "source_text": "A Two-Cohort Randomized Phase II, Double-Blind, Parallel Group Study in Patients with Active Rheumatoid Arthritis Evaluating the Efficacy and Safety of Fenebrutinib Compared with Placebo and Adalimumab in Patients with an Inadequate Response to Previous Methotrexate Therapy (Cohort 1) and Compared with Placebo in Patients with an Inadequate Response or Intolerance to Previous TNF Therapy (Cohort 2)\nThe study was a multicenter, Phase II, randomized, double-blind, placebo-controlled, active comparator (Cohort 1 only), parallel-group, dose-ranging study to evaluate the efficacy and safety of fenebrutinib in patients with moderate to severe active RA and an inadequate response to previous MTX therapy (Cohort 1) or MTX and TNF therapy who may have also had exposure to no more than one non-TNF inhibitor biologic (Cohort 2). Moderate to severe active RA was defined by ≥6 tender/painful joints on motion (68 joint count) and ≥6 swollen joints (66 joint count) at both screening and Day 1 (randomization), as well as a high sensitivity C-reactive protein (hsCRP)≥0. 400 mg/dL for Cohort 1 a hsCRP≥0.650 mg/dL for Cohort 2 at screening.\nThe study enrolled 578 patients. In Cohort 1, 480 MTX-IR patients were randomized to placebo (110 patients), ADA (111 patients), or one of three doses of fenebrutinib: 50 mg QD (40 patients), 150 mg QD (109 patients), or 200 mg BID (110 patients). In Cohort 2, 98 TNF-IR patients were randomized to placebo or 200 mg BID fenebrutinib. […]\nACR Assessments. The ACR's definition for calculating improvement in RA (ACR20) is calculated as a 20% improvement in tender and swollen joint counts and a 20% improvement in 3 of the 5 remaining ACR-core set measures: patient and physician global assessments, pain, disability, and an acute-phase reactant. Similarly, ACR50 and ACR70 are calculated with the respective percent improvements. […]"}, "Total IgG": {"tested_on": "Total IgG", "test": "SLE study biomarker: total IgG", "type": "in vivo, human"}}, "note": "Marks after values point to notes of the source that are not given here."}
{"smiles": "C[C@H]1CN(C2COC2)CCN1c1ccc(Nc2cc(-c3ccnc(N4CCn5c(cc6c5CC(C)(C)C6)C4=O)c3CO)cn(C)c2=O)nc1", "note": "[fenebrutinib, (S)-2-(3′-(hydroxymethyl)-1-methyl-5-((5-(2-methyl-4-(oxetan-3-yl)piperazin-1-yl)pyridin-2-yl)amino)-6-oxo-1,6-dihydro-[3,4′-bipyridin]-2′-yl)-7,7-dimethyl-2,3,4,6,7,8-hexahydro-1H-cyclopenta[4,5]pyrrolo[1,2-a]pyrazin-1-one]", "values": [{"measurement": "Total number of patients with at least one AE", "setting": "[1]; 150 mg QD", "result": "77 (89) n (%)"}, {"measurement": "Total number of patients with at least one AE leading to death", "setting": "[1]; 150 mg QD", "result": "1 (1) n (%)"}, {"measurement": "Total number of patients with at least one Serious AE", "setting": "[1]; 150 mg QD", "result": "4 (5) n (%)"}, {"measurement": "Total number of patients with at least one AE", "setting": "[1]; 200 mg BID", "result": "68 (77) n (%)"}, {"measurement": "Total number of patients with at least one AE leading to death", "setting": "[1]; 200 mg BID", "result": "0 n (%)"}, {"measurement": "Total number of patients with at least one Serious AE", "setting": "[1]; 200 mg BID", "result": "12 (14) n (%)"}, {"measurement": "ALT and AST elevations", "setting": "[1]; interim analysis, 200 mg BID arm, some patients", "result": "signs of ALT and AST elevations"}, {"measurement": "safety and tolerability", "setting": "[1]; interim analysis, each dose", "result": "safe and well tolerated"}, {"measurement": "Total IgM Reduction as % of Baseline", "setting": "Total IgM; Cohort 1, 50 mg QD, Week 4", "result": 94, "unit": "%"}, {"measurement": "Total IgM Reduction as % of Baseline", "setting": "Total IgM; Cohort 1, 50 mg QD, Week 8", "result": 91, "unit": "%*"}, {"measurement": "Total IgM Reduction as % of Baseline", "setting": "Total IgM; Cohort 1, 50 mg QD, Week 12", "result": 88, "unit": "%*"}, {"measurement": "Total IgM Reduction as % of Baseline", "setting": "Total IgM; Cohort 1, 150 mg QD, Week 4", "result": 91, "unit": "%*"}, {"measurement": "Total IgM Reduction as % of Baseline", "setting": "Total IgM; Cohort 1, 150 mg QD, Week 8", "result": 88, "unit": "%*"}, {"measurement": "Total IgM Reduction as % of Baseline", "setting": "Total IgM; Cohort 1, 150 mg QD, Week 12", "result": 86, "unit": "%*"}, {"measurement": "Total IgM Reduction as % of Baseline", "setting": "Total IgM; Cohort 1, 200 mg BID, Week 4", "result": 92, "unit": "%*"}, {"measurement": "Total IgM Reduction as % of Baseline", "setting": "Total IgM; Cohort 1, 200 mg BID, Week 8", "result": 86, "unit": "%*"}, {"measurement": "Total IgM Reduction as % of Baseline", "setting": "Total IgM; Cohort 1, 200 mg BID, Week 12", "result": 84, "unit": "%*"}, {"measurement": "Total IgM absolute reduction relative to placebo", "setting": "Total IgM; cohort 1, 200 mg twice daily, by week 12", "result": -22, "unit": "mg/dL"}, {"measurement": "Total IgM reduction relative to placebo", "setting": "Total IgM; cohort 2, 200 mg twice daily, by week 12", "result": -17, "unit": "mg/dL"}, {"measurement": "overall safety profile", "setting": "RA study: safety; RA study", "result": "comparable to placebo and ADA"}, {"measurement": "Grade 3 LFT elevations", "setting": "RA study: safety; fenebrutinib arms versus placebo and ADA", "result": "numerically more"}, {"measurement": "DAS 28-3 (CRP) Adjusted Mean", "setting": "[2]; Week 12", "result": "−1.96"}, {"measurement": "ACR50 Weighted Difference vs Placebo", "setting": "[2]; Week 12 Day 84", "result": 13.85}, {"measurement": "DAS 28-3 (CRP) Difference (d)", "setting": "[2]; versus placebo, Week 12", "result": "−0.76"}, {"measurement": "Total IgG, Median Change from Baseline at Week 48", "setting": "Total IgG; 150 mg QD", "result": "−1.25* g/L"}, {"measurement": "Total IgG, Median Change from Baseline at Week 48", "setting": "Total IgG; 200 mg BID", "result": "−1.56* g/L"}]}
